Results taken from ChEMBL document CHEMBL1201862, “PubChem BioAssay data set” (2004).
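Cultured in 96-well plates, cells were exposed to test compound for 48 hours across five concentrations. GI50: concentration for 50% inhibition of growth.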 The source made the active and inactive calls. Rule as the data show it: active = GI50 up to about 1.1 µM and inactive = higher.

Columns and labels:
Test in all cases: inhibition of tumour cell growth, NCI panel, 48 h
[1] = tested on: SF-295
[2] = tested on: ACHN
[3] = tested on: Malme-3M
[4] = tested on: T47D
[5] = tested on: SF-539
[6] = tested on: DU-145
[7] = tested on: SNB-19
[8] = tested on: SF-268
[9] = tested on: SN12C
[10] = tested on: NCI-H460
[11] = tested on: Hs-578T
[12] = tested on: MDA-MB-435
[13] = tested on: HT-29
[14] = tested on: UACC-62
[15] = tested on: MDA-MB-231
[16] = tested on: TK-10
[17] = tested on: M14
[18] = tested on: NCI-H23
[19] = tested on: HOP-62
[20] = tested on: U-251
[21] = tested on: HCT-15
[22] = tested on: SW-620
[23] = tested on: CCRF-CEM
[24] = tested on: UO-31
[25] = tested on: NCI/ADR-RES
[26] = tested on: KM12
[27] = tested on: HL-60
[28] = tested on: EKVX
[29] = tested on: UACC-257
[30] = tested on: RXF 393
[31] = tested on: BT-549
[32] = tested on: OVCAR-5
[33] = tested on: SR
[34] = tested on: OVCAR-8
[35] = tested on: PC-3
[36] = tested on: MCF7
[37] = tested on: LOX IMVI
[38] = tested on: A549
[39] = tested on: A498
[40] = tested on: NCI-H522
[41] = tested on: SK-OV-3
[42] = tested on: COLO 205
[43] = tested on: HCT-116
[44] = tested on: CAKI-1
[45] = tested on: HCC 2998
[46] = tested on: 786-0
[47] = tested on: SK-MEL-28
[48] = tested on: SK-MEL-2
[49] = tested on: NCI-H226
[50] = tested on: MDA-N
[51] = tested on: RPMI-8226
[52] = tested on: K562
[53] = tested on: IGROV-1
[54] = tested on: OVCAR-3
[55] = tested on: SK-MEL-5
[56] = tested on: OVCAR-4
[57] = tested on: HOP-92
[58] = tested on: SNB-75
[59] = tested on: MOLT-4

Measured: GI50

CCOc1ccc2c(c1)NC(=O)C(C1OC(c3ccccc3)=CC1=O)S2 (stereo unspecified)
inactive: [1] 27 µM | [2] 37.2 µM | [3] 21.1 µM | [4] 15.8 µM | [5] 25.1 µM | [6] 38.5 µM | [7] 59.8 µM | [8] 27.5 µM | [9] 26.7 µM | [10] 16.3 µM | [11] 27.5 µM | [12] 18.5 µM | [13] 20.2 µM | [14] 15 µM | [15] 25.1 µM | [16] 43.7 µM | [17] 48.2 µM | [18] 28.2 µM | [19] 53.2 µM | [20] 19.7 µM | [22] 33.4 µM | [23] 1.9 µM | [24] 29.3 µM | [25] 24.9 µM | [26] 23.9 µM | [27] 44.8 µM | [28] 25.1 µM | [29] 56.5 µM | [30] 19.7 µM | [31] 32.1 µM | [32] 16.1 µM | [33] 15.7 µM | [34] 22.5 µM | [35] 13.8 µM | [36] 16.2 µM | [37] 23.2 µM | [38] 17.3 µM | [39] > 100 µM | [40] 10.4 µM | [41] 16.1 µM | [42] 14 µM | [43] 35.6 µM | [44] 34.5 µM | [45] 14.4 µM | [46] 33.3 µM | [47] 31 µM | [48] 40.1 µM | [49] 27.7 µM | [50] 25.1 µM | [51] 12 µM | [52] 24.2 µM | [53] 17 µM | [54] 20.1 µM | [55] 18.8 µM
21.8 µM: [21]

COc1ccc(NC(=O)CC(=O)N2N=C(N3CCCCC3)CC2c2ccccc2)cc1 (stereo unspecified)
inactive: [1] > 100 µM | [2] > 100 µM | [3] > 100 µM | [4] > 100 µM | [5] > 100 µM | [6] > 100 µM | [7] > 100 µM | [8] > 100 µM | [56] > 100 µM | [9] > 100 µM | [10] > 100 µM | [11] > 100 µM | [12] > 100 µM | [13] > 100 µM | [14] > 100 µM | [15] > 100 µM | [16] > 100 µM | [17] > 100 µM | [18] > 100 µM | [19] > 100 µM | [20] > 100 µM | [22] > 100 µM | [23] > 100 µM | [24] > 100 µM | [25] > 100 µM | [26] > 100 µM | [27] > 100 µM | [28] > 100 µM | [29] > 100 µM | [30] > 100 µM | [31] > 100 µM | [32] > 100 µM | [33] > 100 µM | [34] > 100 µM | [35] > 100 µM | [57] 99.5 µM | [36] > 100 µM | [37] > 100 µM | [38] > 100 µM | [39] > 100 µM | [58] > 100 µM | [40] > 100 µM | [42] > 100 µM | [43] > 100 µM | [44] > 100 µM | [45] > 100 µM | [46] > 100 µM | [47] > 100 µM | [48] > 100 µM | [49] > 100 µM | [50] > 100 µM | [59] > 100 µM | [53] > 100 µM | [54] > 100 µM | [55] > 100 µM
> 100 µM: [21]
